Test results: US8546414B2, “Ion channel modulators and methods of use” (Vertex Pharmaceuticals Incorporated, priority 2004, dated 2013)

What was measured:
Type in all cases: cell-based
CaV2.2 = biological target: T1, CaV2.2 (Homo sapiens, UniProt Q00975); test: VIPR optical membrane potential assay with electrical stimulation, CaV2.2; conditions: Table 9, CaV 2.2 receptors
T1 construct: expressed in transfected cells; host or cells: HEK293
Procedure, shortened: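 HEK293 cells stably expressing CaV2.2 stained with CC2-DMPE/DiSBAC2(3) voltage-sensitive dyes (10 μM final CC2-DMPE, 30 min, RT), then compound added and cells electrically stimulated for 3-5 s. Read-out: background-subtracted 460/580 nm emission ratio; response R=Rf/Ri (post- vs pre-stimulus ratio); antagonism seen as reduced response.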

NaV1.3 = biological target: T2, NaV1.3 (Homo sapiens, UniProt Q9NY46); test: VIPR optical membrane potential assay with electrical stimulation, NaV1.3; conditions: Table 9, NaV 1.3 receptors
T2 construct: expressed in transfected cells; host or cells: HEK293
Procedure, shortened: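 HEK293 cells stably expressing NaV1.3, stained with CC2-DMPE (10 μM final) then DiSBAC2(3) with ABSC1, 30 min each at RT; compounds added with oxonol. Electrical stimulation for 3 s; 460/580 nm background-subtracted emission ratio Rf/Ri, normalised to tetracaine (positive) and untreated (negative) controls.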

NaV1.8 = NaV1.8 (Homo sapiens, UniProt Q9Y5Y9); test: VIPR optical membrane potential assay, NaV1.8 (other subtypes in an analogous mode); conditions: Table 9, NaV 1.8 receptors
Description: Antagonist properties of test compounds were assessed as follows. Cells expressing the NaV of interest were placed into microtiter plates. After an incubation period, the cells were stained with fluorescent dyes sensitive to the transmembrane potential. The test compounds were added to the microtiter plate. The cells were stimulated with either chemical or electrical means to evoke a NaV dependent membrane potential change from unblocked channels, which was detected and measured with trans-membrane potential-sensitive dyes. Antagonists were detected as a decreased membrane potential response to the stimulus.
24 hours before the assay on VIPR, CHO cells endogenously expressing a NaV 1.2 type voltage-gated NaV are seeded in 96-well poly-lysine coated plates at 60,000 cells per well. […] Plates are incubated in the dark for 30 minutes at room temperature. • 4) While the cells are being stained with coumarin, a […] oxonol solution in BS#2 is prepared. […] As before, the residual volume should be 40 μL. • 6) Upon removing the bath, the cells are loaded with 80 μL of the DiSBAC2(3) solution, after which test compound, dissolved in DMSO, is added to achieve the desired test concentration to each well from the drug addition plate and mixed thoroughly. The volume in the well should be roughly 121 μL. The cells are then incubated for 20-30 minutes. • 7) Once the incubation is complete, the cells are ready to be assayed on VIPR® with a sodium addback protocol. 120 μL of Bath solution #1 is added to stimulate the NaV dependent depolarization. […] tetracaine was used as an antagonist positive control for block of the NaV channel. Analysis of VIPR® Data:
The following is an example of how NaV1.3 inhibition activity is measured using the optical membrane potential method#2. Other subtypes are performed in an analogous mode in a cell line expressing the NaV of interest.

NaV1.8, sequence (Q9Y5Y9 whole entry): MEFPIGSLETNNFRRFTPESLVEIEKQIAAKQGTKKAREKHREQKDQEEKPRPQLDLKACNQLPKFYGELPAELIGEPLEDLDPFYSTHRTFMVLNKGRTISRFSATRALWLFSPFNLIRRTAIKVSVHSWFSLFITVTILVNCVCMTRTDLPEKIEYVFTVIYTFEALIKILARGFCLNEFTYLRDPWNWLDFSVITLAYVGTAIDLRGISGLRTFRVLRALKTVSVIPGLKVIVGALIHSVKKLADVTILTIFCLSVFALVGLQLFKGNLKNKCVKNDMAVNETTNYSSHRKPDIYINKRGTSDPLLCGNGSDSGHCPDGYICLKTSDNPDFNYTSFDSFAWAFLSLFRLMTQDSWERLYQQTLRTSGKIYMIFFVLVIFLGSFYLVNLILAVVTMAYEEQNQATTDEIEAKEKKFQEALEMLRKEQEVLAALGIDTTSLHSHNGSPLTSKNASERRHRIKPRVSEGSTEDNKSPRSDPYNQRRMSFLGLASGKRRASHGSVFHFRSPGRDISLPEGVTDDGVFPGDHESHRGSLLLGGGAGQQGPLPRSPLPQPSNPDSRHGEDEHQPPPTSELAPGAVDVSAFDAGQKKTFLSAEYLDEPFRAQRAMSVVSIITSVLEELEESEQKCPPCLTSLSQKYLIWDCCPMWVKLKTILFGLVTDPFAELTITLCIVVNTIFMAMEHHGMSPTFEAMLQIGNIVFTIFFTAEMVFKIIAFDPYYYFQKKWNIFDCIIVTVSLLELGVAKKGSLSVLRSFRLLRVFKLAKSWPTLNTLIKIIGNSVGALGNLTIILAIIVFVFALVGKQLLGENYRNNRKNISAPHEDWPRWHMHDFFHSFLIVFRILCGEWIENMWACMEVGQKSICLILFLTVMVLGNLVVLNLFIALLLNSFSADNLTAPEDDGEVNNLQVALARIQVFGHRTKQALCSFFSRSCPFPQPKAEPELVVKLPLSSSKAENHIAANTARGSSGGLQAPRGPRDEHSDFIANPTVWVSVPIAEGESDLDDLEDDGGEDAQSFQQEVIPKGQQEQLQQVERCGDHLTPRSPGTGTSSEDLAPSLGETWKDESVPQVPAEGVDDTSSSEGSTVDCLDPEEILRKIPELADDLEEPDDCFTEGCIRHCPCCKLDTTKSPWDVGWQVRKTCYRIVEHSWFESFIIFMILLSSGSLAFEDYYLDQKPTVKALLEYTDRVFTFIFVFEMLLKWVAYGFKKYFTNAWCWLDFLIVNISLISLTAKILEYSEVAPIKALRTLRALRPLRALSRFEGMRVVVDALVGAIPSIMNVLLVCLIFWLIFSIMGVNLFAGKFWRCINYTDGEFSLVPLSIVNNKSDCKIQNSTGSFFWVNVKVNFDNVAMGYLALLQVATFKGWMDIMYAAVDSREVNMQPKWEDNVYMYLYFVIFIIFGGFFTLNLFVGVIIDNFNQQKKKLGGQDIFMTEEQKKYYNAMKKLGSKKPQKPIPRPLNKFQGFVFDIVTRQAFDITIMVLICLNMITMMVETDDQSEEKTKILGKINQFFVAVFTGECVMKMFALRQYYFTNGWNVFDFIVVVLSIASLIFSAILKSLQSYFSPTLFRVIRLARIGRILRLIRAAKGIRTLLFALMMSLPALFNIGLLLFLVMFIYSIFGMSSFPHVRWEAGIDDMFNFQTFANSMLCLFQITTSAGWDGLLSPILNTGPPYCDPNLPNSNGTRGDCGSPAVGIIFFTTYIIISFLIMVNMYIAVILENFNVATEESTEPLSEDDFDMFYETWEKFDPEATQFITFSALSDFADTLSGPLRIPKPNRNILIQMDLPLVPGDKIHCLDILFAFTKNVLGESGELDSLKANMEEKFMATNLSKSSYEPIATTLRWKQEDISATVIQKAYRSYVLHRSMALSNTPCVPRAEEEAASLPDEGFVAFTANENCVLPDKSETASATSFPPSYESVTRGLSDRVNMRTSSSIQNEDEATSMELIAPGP
T2 sequence (Q9NY46 whole entry): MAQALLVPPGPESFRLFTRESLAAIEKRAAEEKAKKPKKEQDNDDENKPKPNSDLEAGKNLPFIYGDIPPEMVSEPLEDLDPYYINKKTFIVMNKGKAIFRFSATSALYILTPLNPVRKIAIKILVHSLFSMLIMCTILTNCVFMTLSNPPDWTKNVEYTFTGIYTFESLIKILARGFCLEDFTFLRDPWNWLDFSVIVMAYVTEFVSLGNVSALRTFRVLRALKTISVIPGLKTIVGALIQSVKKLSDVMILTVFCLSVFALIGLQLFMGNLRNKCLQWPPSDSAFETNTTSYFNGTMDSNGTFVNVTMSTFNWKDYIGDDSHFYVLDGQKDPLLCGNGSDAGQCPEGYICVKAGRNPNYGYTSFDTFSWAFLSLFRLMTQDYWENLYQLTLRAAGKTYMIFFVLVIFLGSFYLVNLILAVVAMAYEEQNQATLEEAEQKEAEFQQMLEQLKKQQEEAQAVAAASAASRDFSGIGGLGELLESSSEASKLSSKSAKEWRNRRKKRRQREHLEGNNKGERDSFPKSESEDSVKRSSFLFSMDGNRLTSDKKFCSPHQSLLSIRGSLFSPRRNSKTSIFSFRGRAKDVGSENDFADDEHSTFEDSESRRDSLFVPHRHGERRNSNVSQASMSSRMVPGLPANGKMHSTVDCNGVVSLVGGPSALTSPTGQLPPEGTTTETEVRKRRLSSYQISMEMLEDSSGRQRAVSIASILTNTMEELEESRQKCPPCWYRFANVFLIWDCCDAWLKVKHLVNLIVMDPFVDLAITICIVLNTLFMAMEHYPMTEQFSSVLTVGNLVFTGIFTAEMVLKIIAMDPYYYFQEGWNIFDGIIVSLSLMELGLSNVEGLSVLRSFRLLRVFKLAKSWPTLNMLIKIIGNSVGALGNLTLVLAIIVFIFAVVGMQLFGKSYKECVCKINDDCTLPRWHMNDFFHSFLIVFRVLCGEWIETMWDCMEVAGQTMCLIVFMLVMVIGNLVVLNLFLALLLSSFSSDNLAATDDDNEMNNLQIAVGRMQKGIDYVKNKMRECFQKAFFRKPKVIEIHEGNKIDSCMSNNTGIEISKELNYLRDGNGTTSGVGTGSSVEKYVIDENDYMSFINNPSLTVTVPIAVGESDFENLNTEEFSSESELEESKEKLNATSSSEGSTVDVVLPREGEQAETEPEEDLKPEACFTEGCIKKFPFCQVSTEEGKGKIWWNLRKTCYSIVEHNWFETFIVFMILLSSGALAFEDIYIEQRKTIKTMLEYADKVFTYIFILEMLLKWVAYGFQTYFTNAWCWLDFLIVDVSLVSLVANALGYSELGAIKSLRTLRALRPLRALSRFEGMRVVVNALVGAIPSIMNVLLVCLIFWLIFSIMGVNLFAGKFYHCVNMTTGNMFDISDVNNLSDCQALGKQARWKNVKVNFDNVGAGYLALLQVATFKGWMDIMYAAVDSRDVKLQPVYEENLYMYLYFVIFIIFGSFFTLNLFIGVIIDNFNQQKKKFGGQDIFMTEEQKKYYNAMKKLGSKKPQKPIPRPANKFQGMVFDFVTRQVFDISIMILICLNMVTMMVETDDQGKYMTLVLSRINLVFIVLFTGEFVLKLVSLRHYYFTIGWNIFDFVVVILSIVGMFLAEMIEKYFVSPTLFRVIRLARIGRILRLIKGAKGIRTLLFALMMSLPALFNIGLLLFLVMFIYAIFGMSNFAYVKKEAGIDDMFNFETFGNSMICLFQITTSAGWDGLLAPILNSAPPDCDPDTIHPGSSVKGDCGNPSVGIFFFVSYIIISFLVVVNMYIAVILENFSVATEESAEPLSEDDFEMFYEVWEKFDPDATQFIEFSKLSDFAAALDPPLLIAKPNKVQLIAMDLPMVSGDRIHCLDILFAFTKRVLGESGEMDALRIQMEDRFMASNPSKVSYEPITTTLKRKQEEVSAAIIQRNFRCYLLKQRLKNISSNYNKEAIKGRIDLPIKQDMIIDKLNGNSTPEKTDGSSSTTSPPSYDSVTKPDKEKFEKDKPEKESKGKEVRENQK

| IC50 (CaV2.2) [µM] | IC50 (NaV1.3) [µM] | IC50 (NaV1.8) [µM] | SMILES |
| --- | --- | --- | --- |
| 2 to 10 | > 10 | > 10 | CC(C)(C)c1ccc(CN(C(=O)c2cnc(N3CCSCC3)nc2-c2ccccc2F)C2CC2)cc1 [compound 2] |
| < 2 | 2 to 10 | 2 to 10 | CC(C)N(Cc1ccccc1)C(=O)c1cnc(N2CCSCC2)nc1-c1ccccc1F [compound 98] |
| > 10 | > 10 | > 10 | CN(CCc1ccccc1)C(=O)c1cnc(N2CCOCC2)nc1-c1ccccc1F [compound 199] |
| > 10 | > 10 | > 10 | O=C(NC1CC1c1ccccc1)c1cnc(N2CCOCC2)nc1-c1ccccc1F (centres unmarked) [compound 97] |
| 2 to 10 | > 10 | > 10 | O=C(c1cnc(N2CCOCC2)nc1-c1ccccc1F)N(Cc1cccc(-c2ccncc2)c1)C1CC1 [compound 60] |
| > 10 | > 10 | > 10 | CC(C)N(Cc1ccccc1)C(=O)c1cnc(Nc2cccc(O)c2)nc1-c1ccccc1F [compound 132] |
| > 10 | > 10 | > 10 | COc1cccc(N(C(=O)c2cnc(N3CCCCC3)nc2-c2ccccc2F)C2CC2)c1 [compound 158] |
| 2 to 10 | > 10 | > 10 | COc1cccc(N(C(=O)c2cnc(N3CCC4CCCCC4C3)nc2-c2ccccc2F)C2CCCC2)c1 (centres unmarked) [compound 154] |
| < 2 | < 2 | > 10 | COc1cccc(CN(C(=O)c2cnc(N3CCC4CCCCC4C3)nc2-c2ccccc2F)C(C)C)c1 (centres unmarked) [compound 162] |
| > 10 | > 10 | > 10 | CN1CCN(c2ncc(C(=O)N(Cc3ccncc3)C3CC3)c(-c3ccccc3F)n2)CC1 [compound 18] |
| 2 to 10 | > 10 | > 10 | CN1CCN(c2ncc(C(=O)N(Cc3ccc(C(F)(F)F)cc3)C3CC3)c(-c3ccccc3F)n2)CC1 [compound 126] |
| > 10 | > 10 | > 10 | COc1cccc(N(C(=O)c2cnc(N3CCOCC3)nc2-c2ccccc2F)C2CCOCC2)c1 [compound 197] |
| < 2 | 2 to 10 | 2 to 10 | CCCN(CC1CC1)c1ncc(C(=O)N(Cc2cccc(OC)c2)C(C)C)c(-c2ccccc2F)n1 [compound 4] |
| > 10 | > 10 | > 10 | CC(C)N(C(=O)c1cnc(N2CCOCC2)nc1-c1ccccc1F)C1CCSC1 (centres unmarked) [compound 172] |
| > 10 | > 10 | > 10 | CC(=O)Nc1ccc(-c2nc(N3CCOCC3)ncc2C(=O)N(Cc2ccccc2)C(C)C)cc1 [compound 168] |
| 2 to 10 | > 10 | > 10 | CC(C)N(C(=O)c1cnc(N2CCCCC2)nc1-c1ccccc1Cl)C1CCSC1 (centres unmarked) [compound 155] |
| > 10 | > 10 | > 10 | CC(C)N(C(=O)c1cnc(N2CCOCC2)nc1-c1ccccc1F)c1cccc([N+](=O)[O-])c1 [compound 178] |
| 2 to 10 | 2 to 10 | 2 to 10 | CC(C)N(Cc1ccc2c(c1)OCO2)C(=O)c1cnc(N2CCCCC2)nc1-c1ccccc1Cl [compound 146] |
| 2 to 10 | 2 to 10 | > 10 | CCC(COC)N(Cc1ccccc1)C(=O)c1cnc(N2CCSCC2)nc1-c1ccccc1F (centres unmarked) [compound 81] |
| < 2 | < 2 | 2 to 10 | COc1cccc(CN(C(=O)c2cnc(NC(C)c3ccccc3)nc2-c2ccccc2F)C(C)C)c1 (centres unmarked) [compound 188] |
| > 10 | > 10 | > 10 | O=C(NC1CCCC1)c1cnc(N2CCOCC2)nc1-c1ccccc1F [compound 19] |
| > 10 | > 10 | > 10 | CCNc1ncc(C(=O)N(Cc2ccccc2)C(C)C)c(-c2ccccc2F)n1 [compound 11] |
| > 10 | > 10 | > 10 | CC(C)N(Cc1ccccc1)C(=O)c1cnc(Nc2ccc(F)cc2)nc1-c1ccccc1F [compound 181] |
| > 10 | 2 to 10 | > 10 | CCC(COC)N(Cc1ccccc1)C(=O)c1cnc(N2CCOCC2)nc1-c1ccccc1F (centres unmarked) [compound 113] |

| IC50 (CaV2.2) [µM] | IC50 (NaV1.3) [µM] | IC50 (NaV1.8) [µM] | SMILES |
| --- | --- | --- | --- |
| 2 to 10 | 2 to 10 | > 10 | COc1cccc(N(C(=O)c2cnc(N3CCC4CCCCC4C3)nc2-c2ccccc2F)C(C)C)c1 (centres unmarked) [compound 34] |
| > 10 | > 10 | > 10 | CC(C)N(Cc1ccccc1)C(=O)c1cnc(Nc2ccc(Cl)cc2)nc1-c1ccccc1F [compound 207] |
| < 2 | 2 to 10 | > 10 | CCN(CCC#N)c1ncc(C(=O)N(Cc2ccccc2)C(C)C)c(-c2ccccc2F)n1 [compound 96] |
| > 10 | > 10 | – | CCCCNC(=O)c1cnc(NC2CCCC2)nc1-c1cccc(C)c1 [compound 218] |
| > 10 | > 10 | – | N#Cc1ccc(-c2nc(NCc3ccc4c(c3)OCO4)ncc2C(=O)N2CCCC2)cc1 [compound 260] |
| > 10 | > 10 | – | CCCCNc1ncc(C(=O)N2CCC(C)CC2)c(-c2ccc(C#N)cc2)n1 [compound 344] |
| > 10 | > 10 | – | CC(=O)N1CCN(c2ncc(C(=O)N(Cc3ccccc3)C(C)C)c(-c3ccccc3F)n2)CC1 [compound 216] |
| > 10 | > 10 | – | CCN(C)C(=O)c1cnc(N2CCOCC2)nc1-c1ccccc1F [compound 317] |
| > 10 | > 10 | – | O=C(NCc1ccccc1)c1cnc(NCCc2cccc(F)c2)nc1-c1ccccc1F [compound 224] |
| > 10 | > 10 | – | N#Cc1ccc(-c2nc(NC3CCCCC3)ncc2C(=O)N2CCCC2)cc1 [compound 210] |
| > 10 | > 10 | – | CCN(Cc1ccccc1)C(=O)c1cnc(NCc2ccc3c(c2)OCO3)nc1-c1ccc(C#N)cc1 [compound 269] |
| > 10 | > 10 | – | CC(C)CN(C)C(=O)c1cnc(N2CCCC2)nc1-c1ccccc1F [compound 270] |
| > 10 | > 10 | – | CC(C)CN(C)C(=O)c1cnc(N2CCCCC2)nc1-c1ccc(C#N)cc1 [compound 322] |
| > 10 | > 10 | – | CN(C(=O)c1cnc(NCC2CC2)nc1-c1ccc(C#N)cc1)C1CCCCC1 [compound 298] |
| > 10 | > 10 | – | COCCCNc1ncc(C(=O)N(Cc2ccccc2)C(C)C)c(-c2ccccc2F)n1 [compound 296] |
| > 10 | > 10 | – | COCCCNc1ncc(C(=O)NCC2CC2)c(-c2ccc(C#N)cc2)n1 [compound 231] |
| > 10 | > 10 | – | N#Cc1ccc(-c2nc(NCC3CCCCC3)ncc2C(=O)N2CCCCC2)cc1 [compound 245] |
| > 10 | > 10 | – | CCC(C)Nc1ncc(C(=O)N(C)CC)c(-c2ccc(C#N)cc2)n1 (centres unmarked) [compound 336] |
| > 10 | > 10 | – | CC1CCN(C(=O)c2cnc(N3CCOCC3)nc2-c2ccccc2F)CC1 [compound 337] |
| > 10 | > 10 | – | COCCCNC(=O)c1cnc(N2CCOCC2)nc1-c1cccc(C)c1 [compound 307] |
| > 10 | > 10 | – | CC(C)CN(CC(C)C)C(=O)c1cnc(N2CCCC2)nc1-c1ccc(C#N)cc1 [compound 341] |
| > 10 | > 10 | – | CCC(C)NC(=O)c1cnc(N(C)CC(C)C)nc1-c1ccc(C#N)cc1 (centres unmarked) [compound 230] |
| > 10 | > 10 | – | CC(=O)N1CCN(c2ncc(C(=O)N3CCCCC3)c(-c3ccc(C#N)cc3)n2)CC1 [compound 267] |

| SMILES | IC50 (CaV2.2) [µM] | IC50 (NaV1.3) [µM] | IC50 (NaV1.8) [µM] |
| --- | --- | --- | --- |
| CC(C)N(Cc1ccc(C(C)(C)C)cc1)C(=O)c1cnc(N2CCCCC2)nc1-c1ccccc1Cl [compound 119] | 2 to 10 | > 10 | > 10 |
| O=C(c1cnc(N2CCSCC2)nc1-c1ccccc1F)N(Cc1ccccc1)C1CCCCC1 [compound 47] | 2 to 10 | 2 to 10 | > 10 |
| Cc1cccc(-c2nc(NC3CC4CC(C3C)C4(C)C)ncc2C(=O)N2CCOCC2)c1 (centres unmarked) [compound 288] | > 10 | > 10 | – |
| O=C(c1cnc(NCC2CCCCC2)nc1-c1ccccc1F)N1CCOCC1 [compound 351] | > 10 | > 10 | – |
